# Test results taken from patent US4239778A, “Azaprostanoic acid analogs and their use as inhibitors of platelet aggregation” (priority 1978, dated 1980).
# Entries after “also recorded” stand apart in the source; their conditions may differ.
# Legend:
# platelets (human PRP) = test: Arachidonic acid-induced platelet aggregation (method of Born); assay type: cell-based; conditions: for inhibition of arachidonic acid-induced platelet aggregation (in words): 10 μM inhibitor; for inhibition at 10 µM: Homo sapiens, Platelet, human PRP
# Experimental: The effect of various azaprostanoic acids of the invention on arachidonic acid-induced platelet aggregation was determined according to the method of Born, Nature, 194, 927 (1962). At a concentration of 10 μM, trans-13-azaprostanoic acid, and cis-15-azaprostanoic acid, inhibit aggregation 100% and 91%, respectively in response to 300 μM arachidonare. Both the cis and trans-13-aza-20-homoprostanoic acid analogs show significant inhibitory activity, 50% and 71%, respectively.
# The relative inhibitory activities of the azaprostanoic acids were determined by varying the concentration of arachidonic acid while keeping the inhibitor concentration constant.
# [1] = molecular target: T1, prostaglandin synthetase (cyclooxygenase) (Bos taurus, UniProt O62664); test: Inhibition of prostaglandin synthetase (cyclooxygenase): arachidonic acid-dependent formation of adrenochrome from L-epinephrine; assay type: biochemical, bovine (seminal vesicles); conditions: for inhibition at 500 µM / inhibition of cyclooxygenase (in words): 5×10^-4 M; for inhibition at 500 µM: read-out: inhibitory activity on cyclooxygenase
# T1 construct: adrenochrome assay with arachidonic acid
# T1 sequence (O62664 25-600): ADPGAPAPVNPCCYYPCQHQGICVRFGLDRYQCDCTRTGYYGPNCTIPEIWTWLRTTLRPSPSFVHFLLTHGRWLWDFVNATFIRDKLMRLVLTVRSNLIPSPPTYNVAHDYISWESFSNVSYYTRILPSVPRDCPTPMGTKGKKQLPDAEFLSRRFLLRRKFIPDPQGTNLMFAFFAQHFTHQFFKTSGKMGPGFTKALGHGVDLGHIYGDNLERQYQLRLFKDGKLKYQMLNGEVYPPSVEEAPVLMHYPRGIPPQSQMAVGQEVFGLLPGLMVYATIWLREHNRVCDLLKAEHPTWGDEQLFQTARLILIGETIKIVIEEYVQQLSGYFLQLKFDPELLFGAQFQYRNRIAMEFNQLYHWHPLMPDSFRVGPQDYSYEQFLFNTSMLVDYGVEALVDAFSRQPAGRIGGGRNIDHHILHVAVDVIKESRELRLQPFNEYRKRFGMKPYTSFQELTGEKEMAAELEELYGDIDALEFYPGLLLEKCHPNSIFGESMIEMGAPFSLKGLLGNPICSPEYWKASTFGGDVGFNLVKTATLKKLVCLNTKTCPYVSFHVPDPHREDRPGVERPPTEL
# Experimental: A representative sample of the 13-azaprostanoic acid derivatives, and cis-15-azaprostanoic acid were tested for their effect as inhibitors of prostaglandin synthetase (cyclooxygenase). The basis of the assay is the measurement of the arachidonic acid-dependent formation of adrenochrome from L-peinephrine during prostaglandin biosynthesis [See, generally, the procedure of Takaguchi, et al., Prostaglandins, 2, 169 (1972)].
# In order to check the possibility that the compounds might be inhibitors of the cyclooxygenase enzyme, they were tested in a standard prostaglandin biosynthesis assay according to the method of Takagushi, et al., Prostaglandins, 2, 169 (1972). The basis of the assay is the measurement of the arachidonic acid-dependent formation of adrenochrome from L-epinephrine during prostaglandin biosynthesis. Although the assay is an indirect measurement of cyclooxygenase activity, it offers the advantage that total enzyme activity is measured and is not limited to the measurement of any one product of the biotransformation.
# [2] = tested on: platelets (human platelet rich plasma); test: ADP-induced primary (reversible) platelet aggregation; assay type: cell-based; conditions: 100 μM, 2 min. pretreatment; 10 μM ADP
# Text: No effect was observed on the ADP-induced primary aggregation of platelets.
# [3] = tested on: aspirin-treated platelets (human PRP); test: Aggregation of aspirin-treated platelets by transferred externally generated endoperoxides/thromboxane A2; assay type: cell-based
# Experimental: The effect of trans-13-azaprostanoic acid on platelet aggregation induced by externally generated endoperoxides and thromboxane A2 was investigated. The endoperoxides and thromboxane A2 were generated by the addition of 500 μM arachidonic acid to 0.75 ml of human platelet-rich plasma (PRP). […] The endoperoxides and thromboxane transferred caused the aspirin-treated platelets to aggregate.
# It has been shown that the formation of thromboxanes is closely associated with the initiation of platelet aggregation and occurs rapidly (within 30 sec.) when induced by arachidonic acid. Therefore, the aggregating effect of thromboxane A2 can be studied by first generating the agent in one sample of PRP, and then transferring a portion of this to a second sample of PRP. […] Thus, any aggregation induced by transferred material is due to thromboxane A2 and/or prostaglandin endoperoxides. […] This experiment was repeated several times with identical results.
# thromboxane synthetase = conditions: cited from earlier work
# ADP-induced aggregation = conditions: vs PGE1; cited from earlier work
# [4] = in vivo; cited from earlier work
# [5] = tested on: platelet conversion of AA to thromboxane B2 (TXB2); test: TXB2 formation in platelet rich plasma aggregated with arachidonic acid (radioimmunoassay); assay type: cell-based; conditions: AA 500 μM alone
# Experimental: (§1) Platelet rich plasma was aggregated with 500 μM arachidonic acid and three minutes following arachidonate addition, aliquots of the plasma were drawn for TXB2 determinations.
# platelet rich plasma = test: Platelet aggregation with 500 μM arachidonic acid (Table IV); assay type: cell-based
# Experimental: as §1
# cyclooxygenase = conditions: cited from earlier work
# [6] = 10^-5 M (10 μM) inhibitor, 300 μM arachidonate
# [7] = 10^-5 M inhibitor, 400 μM arachidonate
# [8] = 10^-5 M inhibitor, 500 μM arachidonate
structure (smiles),measurement,setting,value
CCCCCCCN[C@@H]1CCC[C@@H]1CCCCCCC(=O)O (relative stereo) [cis-13-aza],inhibition of arachidonic acid-induced platelet aggregation (in words),platelets (human PRP),inactive
"CCCCCCCCN[C@H]1CCC[C@H]1CCCCCCC(=O)O (relative stereo) [Example 6 cis, cis-13-Aza-20-homoprostanoic acid]",inhibition at 500 µM,[1],~30%
same,inhibition at 10 µM,platelets (human PRP); [6],50%
same,inhibition at 10 µM,platelets (human PRP); [7],11%
same,inhibition at 10 µM,platelets (human PRP); [8],0%
"CCCCCCCN[C@@H]1CCC[C@H]1CCCCCCC(=O)O (relative stereo) [Example 4 trans, trans-13-azaprostanoic acid]",inhibition of cyclooxygenase (in words),[1],did not significantly inhibit
same,inhibition at 10 µM,platelets (human PRP); [6],100%
same,inhibition at 10 µM,platelets (human PRP); [7],66%
same,inhibition at 10 µM,platelets (human PRP); [8],19%
same,inhibition of platelet aggregation (in words),platelets (human PRP); summary of screening,potent inhibitors of platelet aggregation
same,effect on ADP-induced primary aggregation,[2],"did not alter reversible, primary phase aggregation"
same,aggregation induced by transferred thromboxane A2/endoperoxide mixture,"[3]; 100 μM pre-incubation, aspirin-treated platelets",totally inhibited; also recorded: no aggregation was observed
CN(C)CCCOc1nn(Cc2ccccc2)c2ccccc12 [Benzydamine],inhibition of thromboxane synthetase (in words),thromboxane synthetase,more than twice as effective in inhibiting thromboxane synthetase than in inhibiting prostaglandin biosynthesis (cyclooxygenase)
"CCCC[C@H](O)/C=C/[C@H]1[C@H](O)CC(=O)[C@@H]1CCCCCCC(=O)O [Example 20-nor-PGE1, 20-nor-PGE1]",potency relative to PGE1 as inhibitor of ADP-induced aggregation (in words),ADP-induced aggregation,only half as potent as PGE1
CCCCC[C@H](O)/C=C/[C@H]1[C@H](O)CC(=O)[C@@H]1CCCCCCC(=O)O [PGE1],biological half-life (in words),[4],very short biological half-lives
"CCCCCC[C@H](O)/C=C/[C@H]1[C@H](O)CC(=O)[C@@H]1CCCCCCC(=O)O [Example 20-homo-PGE1, 20-homo-PGE1]",potency relative to PGE1 as inhibitor of ADP-induced aggregation,ADP-induced aggregation,3.82 times
"CCCCC/C=C\C/C=C\C/C=C\C/C=C\CCCC(=O)O [Arachidonic Acid (AA), Arachidonic Acid]",aggregation of aspirin-treated platelets by arachidonic acid,"[3]; 500 μM arachidonic acid, aspirin 0.5 mg/ml",did not cause aggregation
same,TXB2,[5],1179 ± 37 ng/mL
same,% Aggregation,platelet rich plasma; AA 500 μM alone,80%
CCCCC[C@H](O)/C=C/[C@H]1C(=O)C[C@H](O)[C@@H]1C/C=C\CCCC(=O)O [PGD2],biological half-life (in words),[4],very short biological half-lives
"CCCCCCN[C@@H]1CCC[C@H]1CCCCCCC(=O)O (relative stereo) [Example 5 trans, trans-13-aza-20-norprostanoic acid]",inhibition of cyclooxygenase (in words),[1],did not significantly inhibit
same,inhibition at 10 µM,platelets (human PRP); [6],14%
same,inhibition at 10 µM,platelets (human PRP); [7],0%
same,inhibition at 10 µM,platelets (human PRP); [8],0%
O=C(O)CCCCCC[C@@H]1CCC[C@H]1NCc1ccccc1 (relative stereo) [Example 3 trans],inhibition of cyclooxygenase (in words),[1],did not significantly inhibit
same,inhibition of arachidonic acid-induced platelet aggregation (in words),platelets (human PRP),inactive
same,inhibition at 10 µM,platelets (human PRP); [6],0%
same,inhibition at 10 µM,platelets (human PRP); [7],0%
same,inhibition at 10 µM,platelets (human PRP); [8],0%
same,effect on ADP-induced primary aggregation,[2],"did not alter reversible, primary phase aggregation"
"CCCCCCCN[C@H]1CCC[C@H]1CCCCCCC(=O)O (relative stereo) [Example 4 cis, cis-13-Azaprostanoic acid]",inhibition of cyclooxygenase (in words),[1],did not significantly inhibit
same,inhibition at 10 µM,platelets (human PRP); [6],43%
same,inhibition at 10 µM,platelets (human PRP); [7],11%
same,inhibition at 10 µM,platelets (human PRP); [8],0%
same,effect on ADP-induced primary aggregation,[2],"did not alter reversible, primary phase aggregation"
"COc1ccc2c(c1)c(CC(=O)O)c(C)n2C(=O)c1ccc(Cl)cc1 [indomethacin, reference compound]",inhibition of prostaglandin biosynthesis (in words),[1]; indomethacin 2×10^-5 M,completely inhibited
same,inhibition at 20 µM,[1]; read-out: inhibition of enzyme activity,100%
same,inhibition of aggregation (in words),platelet rich plasma; indomethacin 20 μM,totally blocks aggregation
same,inhibition of prostaglandin biosynthesis / cyclooxygenase (in words),cyclooxygenase,inhibit prostaglandin biosynthesis by blocking the conversion of substrate fatty acids to endoperoxides
"CCCCCCCCN[C@@H]1CCC[C@H]1CCCCCCC(=O)O (relative stereo) [Example 6 trans, trans-13-aza-20-homoprostanoic acid]",inhibition at 500 µM,[1],~30%
same,inhibition at 10 µM,platelets (human PRP); [6],71%
same,inhibition at 10 µM,platelets (human PRP); [7],7%
same,inhibition at 10 µM,platelets (human PRP); [8],0%
"CCCCCNCC[C@H]1CCC[C@H]1CCCCCCC(=O)O (relative stereo) [Example 8 cis, 15-Azaprostanoic acid]",inhibition at 10 µM,platelets (human PRP); [6],91%
same,inhibition at 10 µM,platelets (human PRP); [7],16%
same,inhibition at 10 µM,platelets (human PRP); [8],0%
same,effect on ADP-induced primary aggregation,[2],"did not alter reversible, primary phase aggregation"
